Source: paper PMC10533412, “Phosphoantigens glue butyrophilin 3A1 and 2A1 to activate Vγ9Vδ2 T cells” (Nature, 2023)
“And” between values parts separate entries of the source, which are not always exact repeats. Equal entries are not always repeated. One block for each compound: values may come before it.

What was measured:
[1] = test system: BTN2A−/− MIA PaCa-2 (BTN2A1/BTN2A2 KO) cells; test: Cell killing assay with BTN2A−/− MIA PaCa-2 (BTN2A1/BTN2A2 KO) cells expressing BTN2A1/BTN2A2 variants; settings: cells expressing the BTN2A1 variant given as label; for Mean response (Fig. 6h, Dunnett test details): N = 6
Method: (§2) MIA PaCa-2 cells were infected with lentivirus bearing luciferase transgene. Luciferase-positive cells were plated at 5.0 × 10^3 cells per well in 384-well plates 1 day before transfection. All plasmids were transfected into BTN2A^−/− MIA PaCa-2 (BTN2A1/BTN2A2 KO) cells using Lipofectamine 2000 reagent. […] Stable-lite luciferase (Vazyme) was added to each well and the luciferase signal was immediately measured by using the PerkinElmer EnVision microplate reader.
(§3) Percentage of lysis was calculated using the following equation: percentage of specific lysis = (maximum luciferase − experimental luciferase)/maximum luciferase × 100.

[2] = target: T1, preconditioned BTN2A1–BTN3A1 B30.2 complex (Homo sapiens, UniProt O00481+Q7KYR7); test: ITC: pAg binding to the preconditioned BTN2A1 B30.2 and BTN3A1 B30.2 complex; settings: ITC; Supplementary Table 4; read-out: KD (M) for phosphoantigen binding to the pre-conditioned 2A1 B30.2 and 3A1 B30.2
T1 construct: The BTN3A1 B30.2 domain was expressed and purified as described previously; 6xHis; made in house; host or cells: Escherichia coli BL21 (DE3) for BTN2A1 B30.2
Method: ITC binding fits were calculated using MicroCal Analysis software.
For HMBPP binding to the preconditioned BTN2A1 B30.2 and BTN3A1 B30.2 complex, BTN2A1 B30.2 (20 µM) and BTN3A1 B30.2 (10 µM) were incubated in the buffer at a 2:1 ratio and loaded into the sample cell, and the injection syringe was filled with buffer containing 100 µM HMBPP.
For DMAPP/IPP binding to the preconditioned BTN2A1 B30.2 and BTN3A1 B30.2 complex, BTN2A1 B30.2 (200 µM) and BTN3A1 B30.2 (100 µM) were incubated in buffer at a 2:1 ratio and loaded into the sample cell, and the injection syringe was filled with buffer containing 1 mM DMAPP/IPP.
For other pAgs, their concentrations were adjusted to 500 µM, and BTN2A1 B30.2 and BTN3A1 B30.2 were adjusted to 100 µM and 50 µM at a 2:1 ratio.

MIA PaCa-2 cells [3] = test: Cell killing assay: cytotoxicity of Vγ9Vδ2 T cells towards pAg- or zoledronate-treated MIA PaCa-2 cells (luciferase); format: cell-based, human; settings: Homo sapiens, MIA PaCa-2, Supplementary Table 4; read-out: EC50 (M) for MIA PaCa-2 cell lysis mediated by HMBPP analogs and Vγ9Vδ2 T cells
Method: as §2, §3

[4] = test system: BTN2A−/− MIA PaCa-2 (BTN2A1/BTN2A2 KO) cells; test: IFNγ release from Vγ9Vδ2 T cells in response to zoledronate stimulation of BTN2A−/− MIA PaCa-2 cells expressing BTN2A1 variants; format: cell-based, human; parameters: unit not given here; settings: 6 values
[5] = test system: BTN3A1+CD80+ CHO-K1 cells; test: TNF secretion by Vγ9Vδ2 T cells co-cultured with zoledronate-treated BTN3A1+CD80+ CHO-K1 cells; format: cell-based, Chinese hamster; settings: Fig. 3c, ii
Method: (§1) BTN2A^−/− MIA PaCa-2 (BTN2A1/BTN2A2 KO) cells were plated at 1.0 × 10^4 cells per well in 96-well plates 1 day before transfection. […] The medium was then aspirated and cells were washed four times with PBS at room temperature. Vγ9Vδ2 T cells (1.0 × 10^5 cells per well) were then added and cocultured with MIA PaCa-2 cells, and culture supernatants were collected after 16 h and assayed for TNF levels using a TNF human uncoated ELISA kit (Invitrogen). The assay of CHO-K1 cells (infected with lentivirus of BTN3A1 and CD80) was performed according to the same methods as for the MIA PaCa-2 cells[22],[23].

[6] = test system: BTN2A−/− MIA PaCa-2 (BTN2A1/BTN2A2 KO) cells; test: TNF secretion by Vγ9Vδ2 T cells co-cultured with zoledronate-treated BTN2A−/− MIA PaCa-2 cells expressing BTN2A1 variants; format: cell-based, human; settings: n=6
Method: as §1

MIA PaCa-2 cells [7] = test: AFM-SCFS binding force between a Vγ9Vδ2 T cell and a MIA PaCa-2 cell; format: cell-based, human; parameters: binding force, Mean, Fig. 6b / binding force, Median, Fig. 6b: unit not given here; settings: second panel (Ctrl, ZOL, HMBPP-15, HMBPP-15+ZOL)
Method: The AFM-SCFS analysis procedure was performed using the JPK CellHesion unit as previously described, and closely followed our previously reported protocol for APCs[4]. […] The glass disks were quickly transferred to an AFM adapter with immediate addition of 1 ml of fresh medium (DMEM: 10% FBS and 1% penicillin–streptomycin). […] The raw data were normalized to the background readings. Blank readings for each set of affinity measurements (Vγ9Vδ2 T cells touching the glass surface) were collected immediately before each assay to perform background subtraction. All data were analysed using the JPK image processing software. […] The following steps were the same as described above.

T1 sequence (O00481 322-513 limits assumed): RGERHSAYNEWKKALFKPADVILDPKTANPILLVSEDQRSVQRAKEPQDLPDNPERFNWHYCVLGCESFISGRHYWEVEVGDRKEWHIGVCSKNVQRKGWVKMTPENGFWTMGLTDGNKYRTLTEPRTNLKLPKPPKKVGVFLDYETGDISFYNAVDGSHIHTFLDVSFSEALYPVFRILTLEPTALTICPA
T1 sequence (Q7KYR7 316-527 limits assumed): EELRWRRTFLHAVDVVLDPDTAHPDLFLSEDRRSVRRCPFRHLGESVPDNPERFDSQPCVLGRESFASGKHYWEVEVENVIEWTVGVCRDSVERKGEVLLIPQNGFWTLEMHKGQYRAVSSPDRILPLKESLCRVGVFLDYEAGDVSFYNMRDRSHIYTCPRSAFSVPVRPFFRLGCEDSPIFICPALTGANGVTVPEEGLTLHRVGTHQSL

- Kd [2]: 4.62e-05 M
Compound: C/C(=C\COP(=O)(O)CP(=O)(O)O)CO [Compound 7, (E)-((hydroxy((4-hydroxy-3-methylbut-2-en-1-yl)oxy)phosphoryl)methyl)phosphonic acid]
- EC50 (MIA PaCa-2 cells [3]): 1.46e-06 M

- Kd [2]: 1.25e-05 M
Compound: C/C(=C\COP(=O)(O)C(Cl)(Cl)P(=O)(O)O)CO [Compound 8, (E)-(dichloro(hydroxy((4-hydroxy-3-methylbut-2-en-1yl)oxy)phosphoryl)methyl diphosphate]
- EC50 (MIA PaCa-2 cells [3]): 9.28e-07 M

- Kd [2]: 4.97e-05 M
Compound: C/C(=C\COP(=O)(O)C(Cl)P(=O)(O)O)CO (stereo not drawn) [Compound 9, (E)-(chloro(hydroxy((4-hydroxy-3-methylbut-2-en-1-yl)oxy)phosphoryl)methyl)phosphonic acid]
- EC50 (MIA PaCa-2 cells [3]): 3.5e-05 M

- Kd [2]: 1.15e-05 M
Compound: C/C(=C\COP(=O)(O)C(F)(F)P(=O)(O)O)CO [Compound 10, (E)-(difluoro(hydroxy((4-hydroxy-3-methylbut-2-en-1-yl)oxy)phosphory)methyl)phosphonic acid]
- EC50 (MIA PaCa-2 cells [3]): 5.33e-06 M

- Kd [2]: 2.81e-05 M
Compound: C/C(=C\COP(=O)(O)C(F)P(=O)(O)O)CO (stereo not drawn) [Compound 11, (E)-(fluoro(hydroxy((4-hydroxy-3-methylbut-2-en-1-yl)oxy)phosphoryl)methyl)phosphonic acid]
- EC50 (MIA PaCa-2 cells [3]): 8.71e-07 M

The remaining lines, values behind:

Compound: 2A1 WT
- Mean response (Fig. 6h, Dunnett test details) ([1]; Row 1 (-6.4)): 1.143
- Mean response (Fig. 6h, Dunnett test details) ([1]; Row 2 (-5.8)): 3.802
- Mean response (Fig. 6h, Dunnett test details) ([1]; Row 3 (-5.2)): 14.85
- Mean response (Fig. 6h, Dunnett test details) ([1]; Row 4 (-4.6)): 21.48
- Mean response (Fig. 6h, Dunnett test details) ([1]; Row 5 (-4)): 24.98
- Response, individual replicates (Fig. 6h source data) ([1]; x = -4 (log concentration; stimulant and units not given)): 22.8101 and 22.1668 and 28.5464 and 27.6474 and 25.9163 and 22.7794
- Response, individual replicates (Fig. 6h source data) ([1]; x = -4.6 (log concentration; stimulant and units not given)): 21.6162 and 22.5956 and 18.2653 and 23.7306 and 21.555 and 21.0967
- Response, individual replicates (Fig. 6h source data) ([1]; x = -5.2 (log concentration; stimulant and units not given)): 14.9991 and 16.3572 and 11.8762 and 12.0557 and 14.1862 and 19.6027
- Response, individual replicates (Fig. 6h source data) ([1]; x = -5.8 (log concentration; stimulant and units not given)): 3.9587 and 2.199 and 2.053 and 2.932 and 3.753 and 7.914
- Response, individual replicates (Fig. 6h source data) ([1]; x = -6.4 (log concentration; stimulant and units not given)): 1.264 and 0.797 and 0.5929 and 0.7387 and 0.7679 and 2.697

Compound: CC/C(=C\COP(=O)(O)OP(=O)(O)O)CO [Compound 4, (E)-4-hydroxy-3-ethyl-but-2-enyl diphosphate]
- Kd [2]: 3.26e-07 M
- EC50 (MIA PaCa-2 cells [3]): 4.5e-07 M

Compound: C=CC/C(=C\COP(=O)(O)OP(=O)(O)O)CO [Compound 5, (E)-3-(hydroxymethyl)hexa-2,5-dienyl diphosphate]
- Kd [2]: 2.06e-07 M
- EC50 (MIA PaCa-2 cells [3]): 1.3e-08 M

Compound: C/C(=C\COP(=O)(O)OP(=O)(O)O)C(C)O (stereo not drawn) [Compound 6, (E)-4-hydroxy-3-methylpent-2-en-1-yl diphosphate]
- Kd [2]: 1.69e-05 M
- EC50 (MIA PaCa-2 cells [3]): 1.8e-06 M

Compound: O=P(O)(O)C(O)(Cn1ccnc1)P(=O)(O)O [Zoledronate]
- Mean (Extended Data Fig. 7b) ([4]; NT cells): 2.056
- Mean (Extended Data Fig. 7b) ([4]; cells expressing BTN2A1 E286G): 48.61
- Mean (Extended Data Fig. 7b) ([4]; cells expressing BTN2A1 E300G): 78.93
- Mean (Extended Data Fig. 7b) ([4]; cells expressing BTN2A1 E307G): 40.34
- Mean (Extended Data Fig. 7b) ([4]; cells expressing BTN2A1 E316G): 128.5
- Mean (Extended Data Fig. 7b) ([4]; cells expressing BTN2A1 F324G): 95.24
- Mean (Extended Data Fig. 7b) ([4]; cells expressing BTN2A1 K276G): 55.14
- Mean (Extended Data Fig. 7b) ([4]; cells expressing BTN2A1 K283G): 42.21
- Mean (Extended Data Fig. 7b) ([4]; cells expressing BTN2A1 K304G): 117
- Mean (Extended Data Fig. 7b) ([4]; cells expressing BTN2A1 K311G): 59.44
- Mean (Extended Data Fig. 7b) ([4]; cells expressing BTN2A1 L272G): 81.83
- Mean (Extended Data Fig. 7b) ([4]; cells expressing BTN2A1 L279G): 16.84
- Mean (Extended Data Fig. 7b) ([4]; cells expressing BTN2A1 L294G): 44.72
- Mean (Extended Data Fig. 7b) ([4]; cells expressing BTN2A1 L297G): 44.28
- Mean (Extended Data Fig. 7b) ([4]; cells expressing BTN2A1 L314G): 23.31
- Mean (Extended Data Fig. 7b) ([4]; cells expressing BTN2A1 L318G): 13.17
- Mean (Extended Data Fig. 7b) ([4]; cells expressing BTN2A1 L325C/A327C): 59.39
- Mean (Extended Data Fig. 7b) ([4]; cells expressing BTN2A1 L325G): 7.962
- Mean (Extended Data Fig. 7b) ([4]; cells expressing BTN2A1 R290A): 84.46
- Mean (Extended Data Fig. 7b) ([4]; cells expressing BTN2A1 W320A): 70.37
- Mean (Extended Data Fig. 7b) ([4]; cells expressing BTN2A1 WT): 151.4
- TNF secretion by Vγ9Vδ2 T cells, Mean ([5]; zoledronate-treated cells expressing BTN2A1 D455G/E457R, n=6): 11.14
- TNF secretion by Vγ9Vδ2 T cells, Mean ([5]; zoledronate-treated cells expressing BTN2A1 R477A, n=6): 8.53
- TNF secretion by Vγ9Vδ2 T cells, Mean ([5]; zoledronate-treated cells expressing BTN2A1 T510A, n=6): 7.472
- TNF secretion by Vγ9Vδ2 T cells, Mean ([5]; zoledronate-treated cells expressing BTN2A1 T510M, n=6): 7.874
- TNF secretion by Vγ9Vδ2 T cells, Mean ([5]; zoledronate-treated cells expressing BTN2A1 V511A, n=6): 10.17
- TNF secretion by Vγ9Vδ2 T cells, Mean ([5]; zoledronate-treated cells expressing BTN2A1 V511D, n=6): 6.367
- TNF secretion by Vγ9Vδ2 T cells, Mean ([5]; zoledronate-treated cells expressing BTN2A1 V511W, n=6): 8.466
- TNF secretion by Vγ9Vδ2 T cells, Mean ([5]; zoledronate-treated cells expressing BTN2A1 WT, n=5): 465.4
- TNF secretion by Vγ9Vδ2 T cells, Mean ([5]; zoledronate-treated cells expressing BTN2A1 ∆C, n=6): 7.982
- TNF secretion by Vγ9Vδ2 T cells, Mean ([5]; zoledronate-treated cells, NT, n=6): 20.41
- TNF secretion by Vγ9Vδ2 T cells, Mean ([6]; Fig. 3c, i, zoledronate-treated cells expressing BTN2A1 D455G/E457R): 6.214
- TNF secretion by Vγ9Vδ2 T cells, Mean ([6]; Fig. 3c, i, zoledronate-treated cells expressing BTN2A1 R477A): 8.398
- TNF secretion by Vγ9Vδ2 T cells, Mean ([6]; Fig. 3c, i, zoledronate-treated cells expressing BTN2A1 T510A): 6.658
- TNF secretion by Vγ9Vδ2 T cells, Mean ([6]; Fig. 3c, i, zoledronate-treated cells expressing BTN2A1 T510M): 7.401
- TNF secretion by Vγ9Vδ2 T cells, Mean ([6]; Fig. 3c, i, zoledronate-treated cells expressing BTN2A1 V511A): 7.427
- TNF secretion by Vγ9Vδ2 T cells, Mean ([6]; Fig. 3c, i, zoledronate-treated cells expressing BTN2A1 V511D): 6.982
- TNF secretion by Vγ9Vδ2 T cells, Mean ([6]; Fig. 3c, i, zoledronate-treated cells expressing BTN2A1 V511W): 7.617
- TNF secretion by Vγ9Vδ2 T cells, Mean ([6]; Fig. 3c, i, zoledronate-treated cells expressing BTN2A1 WT): 158.2
- TNF secretion by Vγ9Vδ2 T cells, Mean ([6]; Fig. 3c, i, zoledronate-treated cells expressing BTN2A1 ∆C): 9.364
- TNF secretion by Vγ9Vδ2 T cells, Mean ([6]; Fig. 3c, i, zoledronate-treated cells, NT): 7.859
- TNF secretion by Vγ9Vδ2 T cells, Mean ([6]; Fig. 3d, zoledronate-treated cells expressing BTN2A1 H471G/I472A/Y473A): 9.274
- TNF secretion by Vγ9Vδ2 T cells, Mean ([6]; Fig. 3d, zoledronate-treated cells expressing BTN2A1 R449A/R469A): 16.58
- TNF secretion by Vγ9Vδ2 T cells, Mean ([6]; Fig. 3d, zoledronate-treated cells expressing BTN2A1 WT): 182.7
- TNF secretion by Vγ9Vδ2 T cells, Mean ([6]; Fig. 3d, zoledronate-treated cells expressing BTN2A1 Y464A-T474A): 9.364
- TNF secretion by Vγ9Vδ2 T cells, Mean ([6]; Fig. 3d, zoledronate-treated cells expressing BTN2A1 ∆C): 0.6146
- TNF secretion by Vγ9Vδ2 T cells, Mean ([6]; Fig. 3d, zoledronate-treated cells, NT): 9.612
- binding force, Mean, Fig. 6b (MIA PaCa-2 cells [7]): 1524
- binding force, Median, Fig. 6b (MIA PaCa-2 cells [7]): 1525
